Laboratory results taken from patent publication US20240252583A1, “Compositions and Methods for Treating Persistent Postsurgical Pain” (priority 2021, published 2024).
Like-named read-outs stand apart in the source and are kept apart here.

What was measured:
plasma cytokines = assay: Plasma cytokine measurements in patients treated with DAPTA (capillary electrophoresis and ELISA); format: in vivo, humans
From the text: The specific cytokines IL-1β, IL-10 and IL-12 have been identified as imbalanced following total knee replacement surgeries which increases risk for persistent post-operative pain. Measurement of these cytokines may be used to predict response to therapy, such as treatment by any of the peptides, salts thereof, or compositions of these, including those herein. Since the administration of the peptide DAPTA normalizes multiple plasma cytokines associated with PPSP then DAPTA and other analogs as we have described may be used to treat chronic pain conditions, specifically PPSP. Five HIV patients received DAPTA, 3 mgs/day, by metered nasal spray for 6 to 8 weeks (mean 7+0.6 wks). Patients were not taking other concurrent anti-pain or anti-retroviral therapies. At the beginning and end of the study period heparinized blood was collected and immediately clarified by centrifugation. Plasma aliquots were made and stored frozen at −70 C° for further testing. All sample testing was done on blinded samples at independent testing centers.
Cytokine measurements in patients treated with DAPTA were made after capillary electrophoresis isolation of individual cytokine peaks, followed by enzyme-linked immunoassay using specific antibodies. […] Separated chemical compounds appear as peaks with different migration times in an electropherogram. The purified sample peaks were individually collected and concentration determined by a quantitative enzyme-linked immunosorbent assay (ELISA) using specific antibodies to determine the analyte concentration.

CX3CR1 = CX3CR1 (Homo sapiens, UniProt P49238); conditions: CX3CL1 2.5 nM, FIG. 8
Sequence of CX3CR1 (P49238 whole entry): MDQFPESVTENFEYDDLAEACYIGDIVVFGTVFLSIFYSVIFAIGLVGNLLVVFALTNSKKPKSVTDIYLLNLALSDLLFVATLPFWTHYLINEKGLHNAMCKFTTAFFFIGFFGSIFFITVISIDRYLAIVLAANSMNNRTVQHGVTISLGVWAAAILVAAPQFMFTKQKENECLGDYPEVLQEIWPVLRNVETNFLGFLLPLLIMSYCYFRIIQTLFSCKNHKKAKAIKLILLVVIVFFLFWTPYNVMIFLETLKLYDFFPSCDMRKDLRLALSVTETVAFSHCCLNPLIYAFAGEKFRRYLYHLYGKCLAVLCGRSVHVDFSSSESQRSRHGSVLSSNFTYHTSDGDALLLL
Procedure: All peptides were purified to >95% homogeneity and verified by HPLC isolation, amino acid analysis, and mass spectroscopy. Peptides were dissolved in sterile water and stored as frozen (−20° C.) aliquots at 0.1 mM until use. Chemotaxis was assayed in 96-well plates (NeuroProbe, Cabin John, MD) with […] pore size, PVP-free membranes. Purified human monocytes (>95%) prepared from healthy adult human donors by centrifugal elutriation (>95% pure) were resuspended in chemotaxis assay buffer (DMEM supplemented with 0.1% BSA) at a density of 2×10^6 cells/ml. Cells were labelled with 1.0 μM Calcein AM (Invitrogen) for 30 minutes at 37° C., 5% CO2. Following incubation, cells were washed once and resuspended in chemotaxis assay buffer (DMEM, 1 mg/ml BSA, 25 mM Hepes) at a density of 2×10^6 cells/ml. […] The filter plate ([…] pore size, PVP-free membrane) was snapped on over the filled wells and the monocytes were loaded onto the upper filter surface ([…] in 25 μl). […] At the conclusion of the test period, non-migrating cells were wiped off the upper filter surface and relative fluorescence units (RFUs) of the migrating cells from the lower surface determined by bottom reading in a spectrometer (M5 SpectraMax) at 485/530 nm (Ex/Em). Triplicate determinations were made and results are expressed as the mean Relative Fluorescence Units as depicted in FIG. 8.

[1] = test system: mRNAs encoding CCL2, CCL3, CCR2, CCR5, IL1β, and TNFα
obesity = conditions: oral, daily administration for 3 weeks
Procedure: A subject is diagnosed with obesity. The subject is prescribed a dosing regimen of a pharmaceutical composition. The pharmaceutical composition comprises a therapeutically effective amount of RAP-103. RAP-103 is administered orally to treat obesity.

[2] = Brain entry and pharmacokinetics of RAP-103 after oral gavage and IV dosing; format: in vivo, rats and guinea pigs
[3] = test system: STZ-induced diabetic neuropathic pain
Procedure: Chronic pain development was determined with behavior and molecular/cellular testing and inflammatory reactions in Streptozotocin (STZ)-induced diabetic rats treated with RAP-103.
(§1) Induction and assessment of diabetes in rats: Rats were fasted overnight and given a single intraperitoneal injection of STZ (60 mg/kg, Sigma-Aldrich) in citrate buffer (pH 4.5) to induce type I diabetes. The induction of diabetes was confirmed 72 h post-injection by blood glucose levels (Contour® blood glucose diagnostic kit, Bayer HealthCare, Canada). Body weight and blood glucose levels were measured before and 3 days post-STZ injection and once a week for three weeks post-diabetes induction. Only rats with blood glucose concentration consistently higher than 300 mg/dl were used for the study. Rats used for the study were monitored for persistent mechanical and cold allodynia (up to five months post-induction) and only animals with persistent pain were used.
This solution was prepared freshly for each experiment and kept for 8 days (duration of one experiment) at room temperature. Appropriate concentration for each dose was adjusted accordingly.
Treatment paradigms: Autoclaved water (vehicle) or RAP-103 (0.004, 0.02, 0.1 or 0.5 mg/kg b.w.) was administered daily for 8 days by oral gavage to rats with stable mechanical and cold allodynia (n=5 H2O; n=7 RAP-103).
Assessment of neuropathic pain: Tactile allodynia, mechanical sensitivity was assessed using calibrated. Animals were placed in plexiglass boxes on an elevated metal mesh floor and allowed 60 min for habituation before testing. A series of von Frey filaments with logarithmically incrementing stiffness (Stoelting) was applied perpendicular to the midplantar region of the hind paw. The 50% paw withdrawal threshold was determined using Dixon's up-down method. Withdrawal thresholds of both paws were averaged as one single value per animal.
Cold Allodynia: was assessed using the same apparatus as the von Frey test. Rats were allowed to adapt to the testing environment for at least 10 min. Then, a drop (50 μl) of acetone was applied with a glass syringe fitted with a blunted needle at the centre of the plantar face of a hind paw. Responses were monitored during 1 min after acetone application and were graded according to a 4-point scale: 0, no response; 1, quick withdrawal, flick or stamp of the paw; 2, prolonged withdrawal or repeated flicking of the paw; 3, repeated flicking of the paw with persistent licking directed at the ventral side of the paw. Cumulative scores were then obtained by summing the four scores for each rat, the minimum score being 0 (no response to any of the four trials) and the maximum possible score being 12 (repeated flicking and licking of paws on each of the four trials). Rats were habituated to the testing environment. […] All data is presented as means±SEM. Statistical analysis was performed by two-way ANOVA followed by Bonferroni post-tests. The criterion for statistical significance was p<0.05.

[4] = Plasma pharmacokinetics and acute tolerability of RAP-103 in non-human primates; format: in vivo, Rhesus macaques (Macaca mulatta)
Procedure: In non-human primates (rhesus monkeys) RAP-103 was dosed once on Day 1 by intravenous bolus injection at 1 mg/kg and plasma levels determined. […] Drug in plasma after a single IV dose (1 mg/Kg) was still measurable at anticipated therapeutic levels 96 hrs. post-dose in non-human primates as shown in FIG. 2B.

[5] = test system: post-incisional mechanical allodynia; conditions: RAP-103 0.5 mg/kg i.p.
From the text: Data are expressed as mean±standard error of the mean (S.E.M.), and p<0.05 was accepted as statistically significant.

[6] = Plasma bioavailability and elimination half-life of RAP-103 (species not stated); format: in vivo; conditions: oral, i.p., ss, and IV dosing
stress from PPSP = conditions: oral pill, daily administration for one week
Procedure: A subject is diagnosed with stress from PPSP. A subject is prescribed a dosing regimen of a pharmaceutical composition. The pharmaceutical composition comprises a therapeutically effective amount of RAP-103. RAP-103 is administered orally as a pill to treat the stress from PPSP.

[7] = test system: STZ-induced diabetic neuropathic pain; conditions: oral administration for 7 days, FIG. 4
Procedure: as §1, with “used. […]” for “used.”
Cold Allodynia: was assessed using the same apparatus as the von Frey test. Rats were allowed to adapt to the testing environment for at least 10 min. Then, a drop (50 μl) of acetone was applied with a glass syringe fitted with a blunted needle at the centre of the plantar face of a hind paw. Responses were monitored during 1 min after acetone application and were graded according to a 4-point scale: 0, no response; 1, quick withdrawal, flick or stamp of the paw; 2, prolonged withdrawal or repeated flicking of the paw; 3, repeated flicking of the paw with persistent licking directed at the ventral side of the paw. […]

[8] = plasma, five HIV patients, 3 mgs/day nasal spray, 6 to 8 weeks
[9] = partial nerve ligation and diabetic pain

## dASTTTNYT-NH2 [DAPTA]
Plasma cytokines; intranasal dosing, P<0.005
  cytokines IL-4, IL-10, IL-12 and IL-13: increased significantly
  plasma levels of IL-1β, IL-6, IL-8, and TNFα: significant reductions
Plasma cytokines; plasma, **p < .005
  IL-1β % CHANGE BASELINE to POST-DRUG: −46%**
  IL-2 % CHANGE BASELINE to POST-DRUG: +395** %
  IL-4 % CHANGE BASELINE to POST-DRUG: +448** %
  IL-6 % CHANGE BASELINE to POST-DRUG: −28%**
  IL-8 % CHANGE BASELINE to POST-DRUG: −30%**
  IL-10 % CHANGE BASELINE to POST-DRUG: +350** %
  IL-12 % CHANGE BASELINE to POST-DRUG: +363** %
  IL-13 % CHANGE BASELINE to POST-DRUG: +416** %
  TNFα % CHANGE BASELINE to POST-DRUG: −23%**
Plasma cytokines; [8]
  IL-1β CYTOKINE MEAN ± s.e.m. Post-Treatment: 174 ± 26 pgs/ml
  IL-2 CYTOKINE MEAN ± s.e.m. Post-Treatment: 57 ± 9 pgs/ml
  IL-4 CYTOKINE MEAN ± s.e.m. Post-Treatment: 28 ± 8 pgs/ml
  IL-6 CYTOKINE MEAN ± s.e.m. Post-Treatment: 130 ± 21 pgs/ml
  IL-8 CYTOKINE MEAN ± s.e.m. Post-Treatment: 144 ± 76 pgs/ml
  IL-10 CYTOKINE MEAN ± s.e.m. Post-Treatment: 45 ± 5 pgs/ml
  IL-12 CYTOKINE MEAN ± s.e.m. Post-Treatment: 33 ± 7 pgs/ml
  IL-13 CYTOKINE MEAN ± s.e.m. Post-Treatment: 30 ± 9 pgs/ml
  TNFα CYTOKINE MEAN ± s.e.m. Post-Treatment: 260 ± 67 pgs/ml

## all-D-ASTTTNYT [RAP-310]
CX3CR1; 0.01 pM
  CX3CR1 mediated human monocyte chemotaxis, % of control migration: 38 % of control migration
CX3CR1; 1 pM
  CX3CR1 mediated human monocyte chemotaxis, % of control migration: 24 % of control migration

## C[C@H](O)[C@@H](N)C(=O)N[C@@H](C(=O)N[C@H](CC(N)=O)C(=O)N[C@H](Cc1ccc(O)cc1)C(=O)N[C@@H](C(=O)O)[C@H](C)O)[C@H](C)O [RAP-103, All D-peptide-Thr-Thr-Asn-Tyr-Thr]
[1]; neuropathic pain, FIG. 5
  chemokine receptor CCR2: lowered
  chemokine receptor CCR5: lowered
[1]; oral administration for 7 days versus vehicle (H20), FIG. 5
  spinal cord mRNA encoding cytokines and chemokines: reductions
[1]; [9]
  CCL3: significantly reduced
  IL-1β: significantly reduced
  TNFα: significantly reduced
obesity
  subject's weight: decreases
[2]; FIG. 2A
  brain entry by oral compared to IV dosing: preferentially entered the brain by oral compared to IV dosing
[2]; IV or oral gavage dosing
  brain entry: quickly entered the brain
[2]; IV or oral gavage dosing, FIG. 2A
  persistence at therapeutic levels in brain: at least 24 hrs
[2]; in vivo
  brain entry compared to plasma levels: preferentially enters the brain compared to plasma levels
[3]; 0.004 mg/kg daily oral
  effect on mechanical allodynia by dose: not
[3]; 0.02 mg/kg daily oral
  effect on mechanical allodynia by dose: effective
[3]; 0.1 mg/kg daily oral
  effect on mechanical allodynia by dose: effective
[3]; 0.5 mg/kg daily oral
  effect on mechanical allodynia by dose: effective
[3]; daily oral gavage
  time until reversal of hypersensitivity became significant: 24 to 48 h
[4]; 1 mg/kg
  Cmax and AUC 0-T in male versus female monkeys: comparable
[4]; over seven days after dosing
  RAP-103-related changes in clinical observations or body weights: no acute toxicity
[4]; single IV dose 1 mg/Kg, FIG. 2B
  time post-dose at which drug in plasma was still measurable at anticipated therapeutic levels: ≥ 96 h
[5]
  increase of the potency of morphine: over 2 fold
[6]; in vivo, read-out: half-life (HL) elimination (converted)
  half-life: ~162 min
[6]
  plasma bioavailability: significant plasma bioavailability
Stress from PPSP
  stress and pain in patient suffering from PPSP: reduced
[7]
  cold allodynia: reductions
